Experimental data published in PubChem BioAssay (NCI).
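Compound exposure: 48 hours, 5 concentrations, 96-well plates. GI50: concentration for 50% inhibition of growth. TGI is the concentration that stops growth completely.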

How the values were obtained:
Assay in all cases: DTP human tumour cell line panel, 48 h
NCI-H522 lung = test system: NCI-H522 lung
CAKI-1 renal = test system: CAKI-1 renal
HCT-15 colon = test system: HCT-15 colon
BT-549 breast = test system: BT-549 breast
HOP-92 NSCLC = test system: HOP-92 NSCLC
ACHN renal = test system: ACHN renal
SNB-19 CNS = test system: SNB-19 CNS
SK-MEL-2 melanoma = test system: SK-MEL-2 melanoma
COLO 205 colon = test system: COLO 205 colon
DU-145 prostate = test system: DU-145 prostate
HCT-116 colon = test system: HCT-116 colon
M14 melanoma = test system: M14 melanoma
K-562 leukemia = test system: K-562 leukemia
UO-31 renal = test system: UO-31 renal
NCI-H23 lung = test system: NCI-H23 lung
786-0 renal = test system: 786-0 renal
MDA-MB-435 = test system: MDA-MB-435
HS 578T breast = test system: HS 578T breast
IGROV1 ovarian = test system: IGROV1 ovarian
NCI-H226 lung = test system: NCI-H226 lung
SR leukemia = test system: SR leukemia
A549 NSCLC = test system: A549 NSCLC
TK-10 renal = test system: TK-10 renal
MCF7 breast = test system: MCF7 breast
MALME-3M melanoma = test system: MALME-3M melanoma
PC-3 prostate = test system: PC-3 prostate
A498 renal = test system: A498 renal
SK-OV-3 ovarian = test system: SK-OV-3 ovarian
U251 CNS = test system: U251 CNS
SNB-75 CNS = test system: SNB-75 CNS
NCI/ADR-RES ovarian = test system: NCI/ADR-RES ovarian
OVCAR-3 ovarian = test system: OVCAR-3 ovarian
OVCAR-4 ovarian = test system: OVCAR-4 ovarian
UACC-257 melanoma = test system: UACC-257 melanoma
SF-539 CNS = test system: SF-539 CNS
OVCAR-8 ovarian = test system: OVCAR-8 ovarian
RXF 393 renal = test system: RXF 393 renal
NCI-H460 lung = test system: NCI-H460 lung
MOLT-4 leukemia = test system: MOLT-4 leukemia
RPMI-8226 leukemia = test system: RPMI-8226 leukemia
SW-620 colon = test system: SW-620 colon
LOX IMVI melanoma = test system: LOX IMVI melanoma
HOP-62 NSCLC = test system: HOP-62 NSCLC
EKVX NSCLC = test system: EKVX NSCLC
CCRF-CEM leukemia = test system: CCRF-CEM leukemia
UACC-62 melanoma = test system: UACC-62 melanoma
HL-60(TB) leukemia = test system: HL-60(TB) leukemia
SN12C renal = test system: SN12C renal
HT29 colon = test system: HT29 colon
SF-268 CNS = test system: SF-268 CNS
KM12 colon = test system: KM12 colon
T-47D breast = test system: T-47D breast
SK-MEL-28 melanoma = test system: SK-MEL-28 melanoma
HCC-2998 colon = test system: HCC-2998 colon
MDA-MB-231 breast = test system: MDA-MB-231 breast
SF-295 CNS = test system: SF-295 CNS

Compound: CCc1cccc2c3c(sc12)C(c1ccc(Cl)cc1)C(C#N)=C(/N=C/c1ccc(Cl)cc1)O3 (configuration not stated)
- GI50 (NCI-H522 lung): 206 nM
- TGI (NCI-H522 lung): 2960 nM
- GI50 (CAKI-1 renal): 1290 nM
- TGI (CAKI-1 renal): > 50000 nM
- GI50 (HCT-15 colon): 317 nM
- TGI (HCT-15 colon): > 50000 nM
- GI50 (BT-549 breast): 2360 nM
- TGI (BT-549 breast): > 50000 nM
- GI50 (HOP-92 NSCLC): 7660 nM
- TGI (HOP-92 NSCLC): 45500 nM
- GI50 (ACHN renal): 779 nM
- TGI (ACHN renal): > 50000 nM
- GI50 (SNB-19 CNS): 1200 nM
- TGI (SNB-19 CNS): 15800 nM
- GI50 (SK-MEL-2 melanoma): 797 nM
- TGI (SK-MEL-2 melanoma): 23600 nM
- GI50 (COLO 205 colon): 1590 nM
- TGI (COLO 205 colon): > 50000 nM
- GI50 (DU-145 prostate): 1270 nM
- TGI (DU-145 prostate): > 50000 nM
- GI50 (HCT-116 colon): 347 nM
- TGI (HCT-116 colon): > 50000 nM
- GI50 (M14 melanoma): 582 nM
- TGI (M14 melanoma): > 50000 nM
- GI50 (K-562 leukemia): 234 nM
- TGI (K-562 leukemia): > 50000 nM
- GI50 (UO-31 renal): 1690 nM
- TGI (UO-31 renal): > 50000 nM
- GI50 (NCI-H23 lung): 2510 nM
- TGI (NCI-H23 lung): > 50000 nM
- GI50 (786-0 renal): 1630 nM
- TGI (786-0 renal): > 50000 nM
- GI50 (MDA-MB-435): 162 nM
- TGI (MDA-MB-435): 788 nM
- GI50 (HS 578T breast): 1180 nM
- TGI (HS 578T breast): 35100 nM
- GI50 (IGROV1 ovarian): 377 nM
- TGI (IGROV1 ovarian): > 50000 nM
- GI50 (NCI-H226 lung): 6310 nM
- TGI (NCI-H226 lung): > 50000 nM
- GI50 (SR leukemia): 290 nM
- TGI (SR leukemia): 36300 nM
- GI50 (A549 NSCLC): 670 nM
- TGI (A549 NSCLC): > 50000 nM
- GI50 (TK-10 renal): 8460 nM
- TGI (TK-10 renal): > 50000 nM
- GI50 (MCF7 breast): 248 nM
- TGI (MCF7 breast): > 50000 nM
- GI50 (MALME-3M melanoma): 4720 nM
- TGI (MALME-3M melanoma): > 50000 nM
- GI50 (PC-3 prostate): 556 nM
- TGI (PC-3 prostate): > 50000 nM
- GI50 (A498 renal): 280 nM
- TGI (A498 renal): 4920 nM
- GI50 (SK-OV-3 ovarian): 2790 nM
- TGI (SK-OV-3 ovarian): > 50000 nM
- GI50 (U251 CNS): 1660 nM
- TGI (U251 CNS): 17000 nM
- GI50 (SNB-75 CNS): 104 nM
- TGI (SNB-75 CNS): 1220 nM
- GI50 (NCI/ADR-RES ovarian): 214 nM
- TGI (NCI/ADR-RES ovarian): 8380 nM
- GI50 (OVCAR-3 ovarian): 433 nM
- TGI (OVCAR-3 ovarian): 25200 nM
- GI50 (OVCAR-4 ovarian): > 50000 nM
- TGI (OVCAR-4 ovarian): > 50000 nM
- GI50 (UACC-257 melanoma): 21400 nM
- TGI (UACC-257 melanoma): > 50000 nM
- GI50 (SF-539 CNS): 755 nM
- TGI (SF-539 CNS): 2090 nM
- GI50 (OVCAR-8 ovarian): 1600 nM
- TGI (OVCAR-8 ovarian): > 50000 nM
- GI50 (RXF 393 renal): 578 nM
- TGI (RXF 393 renal): 2660 nM
- GI50 (NCI-H460 lung): 1020 nM
- TGI (NCI-H460 lung): > 50000 nM
- GI50 (MOLT-4 leukemia): 1650 nM
- TGI (MOLT-4 leukemia): > 50000 nM
- GI50 (RPMI-8226 leukemia): 1060 nM
- TGI (RPMI-8226 leukemia): > 50000 nM
- GI50 (SW-620 colon): 360 nM
- TGI (SW-620 colon): > 50000 nM
- GI50 (LOX IMVI melanoma): 905 nM
- TGI (LOX IMVI melanoma): > 50000 nM
- GI50 (HOP-62 NSCLC): 2080 nM
- TGI (HOP-62 NSCLC): 22300 nM
- GI50 (EKVX NSCLC): 1340 nM
- TGI (EKVX NSCLC): > 50000 nM
- GI50 (CCRF-CEM leukemia): 892 nM
- TGI (CCRF-CEM leukemia): > 50000 nM
- GI50 (UACC-62 melanoma): 306 nM
- TGI (UACC-62 melanoma): 44500 nM
- GI50 (HL-60(TB) leukemia): 577 nM
- TGI (HL-60(TB) leukemia): > 50000 nM
- GI50 (SN12C renal): 1930 nM
- TGI (SN12C renal): > 50000 nM
- GI50 (HT29 colon): 1200 nM
- TGI (HT29 colon): > 50000 nM
- GI50 (SF-268 CNS): 10900 nM
- TGI (SF-268 CNS): > 50000 nM
- GI50 (KM12 colon): 417 nM
- TGI (KM12 colon): > 50000 nM
- GI50 (T-47D breast): 1130 nM
- TGI (T-47D breast): > 50000 nM
- GI50 (SK-MEL-28 melanoma): 9500 nM
- TGI (SK-MEL-28 melanoma): > 50000 nM
- GI50 (HCC-2998 colon): 1080 nM
- TGI (HCC-2998 colon): > 50000 nM
- GI50 (MDA-MB-231 breast): 2400 nM
- TGI (MDA-MB-231 breast): > 50000 nM
- GI50 (SF-295 CNS): 177 nM
- TGI (SF-295 CNS): 806 nM
